Results published in publication PMC9120017, “Inhibition mechanism of the chloride channel TMEM16A by the pore blocker 1PBC” (Nature Communications, 2022).
Read-outs that look alike come from different tables or passages of the source.

Biological target: T1, mouse TMEM16A mutant T518A (Mus musculus, UniProt Q8BHY3, T518A)
T1 construct: expressed in transfected cells; host or cells: HEK293T
T1 sequence (Q8BHY3 1-960 T518A): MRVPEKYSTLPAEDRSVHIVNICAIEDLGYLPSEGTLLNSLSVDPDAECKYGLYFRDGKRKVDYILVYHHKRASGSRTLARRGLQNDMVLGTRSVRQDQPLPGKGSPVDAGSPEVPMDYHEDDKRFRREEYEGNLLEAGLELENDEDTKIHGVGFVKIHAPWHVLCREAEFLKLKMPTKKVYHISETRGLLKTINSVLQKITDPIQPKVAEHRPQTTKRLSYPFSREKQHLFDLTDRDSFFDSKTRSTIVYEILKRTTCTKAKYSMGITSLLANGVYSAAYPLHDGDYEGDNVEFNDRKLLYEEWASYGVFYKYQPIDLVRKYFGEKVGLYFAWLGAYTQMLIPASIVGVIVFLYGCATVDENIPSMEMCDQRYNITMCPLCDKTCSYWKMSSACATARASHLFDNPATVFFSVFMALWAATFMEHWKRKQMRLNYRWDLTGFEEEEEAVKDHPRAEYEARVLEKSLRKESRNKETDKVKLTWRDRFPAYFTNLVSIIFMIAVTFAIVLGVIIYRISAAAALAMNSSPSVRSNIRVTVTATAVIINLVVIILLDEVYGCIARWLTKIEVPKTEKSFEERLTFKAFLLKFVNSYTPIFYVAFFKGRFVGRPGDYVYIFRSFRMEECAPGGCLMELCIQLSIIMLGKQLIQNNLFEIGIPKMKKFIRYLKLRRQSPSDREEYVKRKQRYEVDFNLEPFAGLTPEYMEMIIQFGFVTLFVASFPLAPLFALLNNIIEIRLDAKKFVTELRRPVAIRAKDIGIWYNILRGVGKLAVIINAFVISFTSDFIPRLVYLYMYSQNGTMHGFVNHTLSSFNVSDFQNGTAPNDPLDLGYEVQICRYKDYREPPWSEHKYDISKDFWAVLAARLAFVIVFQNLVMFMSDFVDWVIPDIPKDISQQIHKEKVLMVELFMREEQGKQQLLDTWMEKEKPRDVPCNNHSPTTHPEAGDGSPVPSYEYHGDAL
Assay: Inside-out patch recording of 1PBC block, mutant T518A
Type: cell-based
Conditions: for remaining activity at 1 µM: 1PBC 1; for remaining activity at 1 µM / remaining activity at 3 µM / remaining activity at 10 µM / remaining activity at 30 µM / remaining activity at 100 µM: read-out: fraction of unblocked current; for remaining activity at 3 µM: 1PBC 3; for remaining activity at 10 µM: 1PBC 10; for remaining activity at 30 µM: 1PBC 30; for remaining activity at 100 µM: 1PBC 100
Description: HEK293T cells (ATCC CRL-1573) were maintained in Dulbecco’s modified Eagle’s medium (DMEM; Sigma-Aldrich) supplemented with 10 U ml^−1 penicillin, 0.1 mg ml^−1 streptomycin (Sigma-Aldrich), 2 mM L-glutamine (Sigma-Aldrich), and 10% FBS (Sigma-Aldrich) in a humidified atmosphere containing 5% CO2 at 37 °C. HEK293S GnTI^− cells (ATCC CRL-3022) were maintained in HyClone HyCell TransFx-H medium (GE Healthcare) supplemented with 10 U ml^−1 penicillin, 0.1 mg ml^−1 streptomycin, 4 mM L-glutamine, 0.15% poloxamer 188 (Sigma-Aldrich), and 1% FBS in an atmosphere containing 5% CO2 at 185 rpm at 37 °C. The ac splice variant of mouse TMEM16A (UniProt ID: Q8BHY3), mouse TMEM16B (UniProt ID: Q8CFW1), or mouse TMEM16F (UniProt ID: Q6P9J9) bearing a 3C cleavage site, a Venus YFP, a Myc tag, and a Streptavidin-binding peptide (SBP) downstream of the open reading frame in a modified pcDNA3.1 vector (Invitrogen) were used as described previously[21],[31]. Mutations were introduced using a modified QuikChange method[58] and were verified by sequencing.
HEK293T cells were transfected with 3–4 μg DNA per 6 cm Petri dish using the calcium phosphate co-precipitation method and were used within 24–96 h after transfection. Recordings were performed on inside-out patches excised from HEK293T cells expressing the construct of interest. Patch pipettes were pulled from borosilicate glass capillaries (O.D. 1.5 mm, I.D. 0.86 mm, Sutter Instrument) and were fire-polished with a microforge (Narishige) before use. Pipette resistance was typically 3–8 MΩ when filled with the recording solutions detailed below. Seal resistance was typically 4 GΩ or higher. Voltage-clamp recordings were made using Axopatch 200B, Digidata 1550, and Clampex 10.7 (Molecular Devices). Analog signals were filtered with the in-built 4-pole Bessel filter at 10 kHz and were digitized at 20 kHz. Solution exchange was achieved using a gravity-fed system through a theta glass pipette mounted on an ultra-fast piezo-driven stepper (Siskiyou). […] All recordings were performed at 20 °C.
A symmetrical ionic condition was used throughout. Stock solution with Ca^2+-EGTA contained 150 mM NaCl, 5.99 mM Ca(OH)2, 5 mM EGTA, and 10 mM HEPES at pH 7.40. Stock solution with EGTA contained 150 mM NaCl, 5 mM EGTA, and 10 mM HEPES at pH 7.40. Free Ca^2+ concentrations were adjusted by mixing the stock solutions at the required ratios calculated using the WEBMAXC program (http://web.stanford.edu/~cpatton/webmaxcS.htm). Patch pipettes were filled with the stock solution with Ca^2+-EGTA, which has a free Ca^2+ concentration of 1 mM. 1PBC (ChemBridge) stock was reconstituted in anhydrous DMSO (Sigma-Aldrich) at 100 mM and stored at −20 °C. Working solutions with 1PBC were prepared by serial dilution. Unless otherwise stated, experiments were performed at a saturating Ca^2+ concentration as shown in Supplementary Table 1 and the primary data were corrected for current rundown as described previously[21],[25].
Concentration-response relations, obtained from the ratio of the I-V plots before and after the application of the blocker, were fitted to the Hill equation,1 I/Imax=1/1+IC50/[blocker]^h where I/Imax is the normalized current responses, IC50 defines the concentration at which inhibition is at its half-maximum, and h is the Hill coefficient.

Compound: N#Cc1c(C(F)(F)F)cc(O)n2c1nc1ccccc12 [1PBC]
- IC50 (0 mV, 2 µM Ca2+): 5.67 µM
- remaining activity at 1 µM (0 mV): 82.6%
- remaining activity at 1 µM (20 mV): 78.8%
- remaining activity at 1 µM (40 mV): 75.1%
- remaining activity at 1 µM (60 mV): 71.9%
- remaining activity at 1 µM (80 mV): 70.2%
- remaining activity at 1 µM (100 mV): 70.4%
- remaining activity at 1 µM (120 mV): 72.2%
- remaining activity at 1 µM (140 mV): 76.4%
- remaining activity at 1 µM (-20 mV): 86.3%
- remaining activity at 1 µM (-40 mV): 90%
- remaining activity at 1 µM (-60 mV): 91.9%
- remaining activity at 1 µM (-80 mV): 93.5%
- remaining activity at 1 µM (-100 mV): 95.1%
- remaining activity at 1 µM (-120 mV): 96.6%
- remaining activity at 1 µM (-140 mV): 98%
- remaining activity at 3 µM (0 mV): 65.6%
- remaining activity at 3 µM (20 mV): 60.1%
- remaining activity at 3 µM (40 mV): 54.5%
- remaining activity at 3 µM (60 mV): 51%
- remaining activity at 3 µM (80 mV): 47.8%
- remaining activity at 3 µM (100 mV): 46.3%
- remaining activity at 3 µM (120 mV): 47.6%
- remaining activity at 3 µM (140 mV): 50.5%
- remaining activity at 3 µM (-20 mV): 71.2%
- remaining activity at 3 µM (-40 mV): 76.7%
- remaining activity at 3 µM (-60 mV): 81.4%
- remaining activity at 3 µM (-80 mV): 84.1%
- remaining activity at 3 µM (-100 mV): 87.3%
- remaining activity at 3 µM (-120 mV): 90.5%
- remaining activity at 3 µM (-140 mV): 92.2%
- remaining activity at 10 µM (0 mV): 36.7%
- remaining activity at 10 µM (20 mV): 31%
- remaining activity at 10 µM (40 mV): 26.8%
- remaining activity at 10 µM (60 mV): 24%
- remaining activity at 10 µM (80 mV): 22.2%
- remaining activity at 10 µM (100 mV): 21.1%
- remaining activity at 10 µM (120 mV): 21.2%
- remaining activity at 10 µM (140 mV): 22.5%
- remaining activity at 10 µM (-20 mV): 42.4%
- remaining activity at 10 µM (-40 mV): 48.9%
- remaining activity at 10 µM (-60 mV): 54.9%
- remaining activity at 10 µM (-80 mV): 59.5%
- remaining activity at 10 µM (-100 mV): 64.7%
- remaining activity at 10 µM (-120 mV): 68.5%
- remaining activity at 10 µM (-140 mV): 71.3%
- remaining activity at 30 µM (0 mV): 16.5%
- remaining activity at 30 µM (20 mV): 13.3%
- remaining activity at 30 µM (40 mV): 11.5%
- remaining activity at 30 µM (60 mV): 10.1%
- remaining activity at 30 µM (80 mV): 9.34%
- remaining activity at 30 µM (100 mV): 8.78%
- remaining activity at 30 µM (120 mV): 9.07%
- remaining activity at 30 µM (140 mV): 9.98%
- remaining activity at 30 µM (-20 mV): 19.7%
- remaining activity at 30 µM (-40 mV): 23%
- remaining activity at 30 µM (-60 mV): 27.8%
- remaining activity at 30 µM (-80 mV): 31.9%
- remaining activity at 30 µM (-100 mV): 35.9%
- remaining activity at 30 µM (-120 mV): 39.5%
- remaining activity at 30 µM (-140 mV): 43.5%
- remaining activity at 100 µM (0 mV): 6.52%
- remaining activity at 100 µM (20 mV): 4.86%
- remaining activity at 100 µM (40 mV): 3.97%
- remaining activity at 100 µM (60 mV): 3.5%
- remaining activity at 100 µM (80 mV): 3.13%
- remaining activity at 100 µM (100 mV): 2.74%
- remaining activity at 100 µM (120 mV): 2.48%
- remaining activity at 100 µM (140 mV): 2.4%
- remaining activity at 100 µM (-20 mV): 8.19%
- remaining activity at 100 µM (-40 mV): 9.29%
- remaining activity at 100 µM (-60 mV): 11.5%
- remaining activity at 100 µM (-80 mV): 13.7%
- remaining activity at 100 µM (-100 mV): 16.6%
- remaining activity at 100 µM (-120 mV): 18.8%
- remaining activity at 100 µM (-140 mV): 21.5%
- IC50 (20 mV, 2 µM Ca2+): 4.37 µM
- IC50 (40 mV, 2 µM Ca2+): 3.5 µM
- IC50 (60 mV, 2 µM Ca2+): 2.99 µM
- log-fold IC50 (change of mutant vs WT) (80 mV): 0.1093
- IC50 (80 mV, 2 µM Ca2+): 2.66 µM
- IC50 (100 mV, 2 µM Ca2+): 2.55 µM
- IC50 (120 mV, 2 µM Ca2+): 2.69 µM
- IC50 (140 mV, 2 µM Ca2+): 3.08 µM
- IC50 (-20 mV, 2 µM Ca2+): 7.32 µM
- IC50 (-40 mV, 2 µM Ca2+): 9.5 µM
- IC50 (-60 mV, 2 µM Ca2+): 12.2 µM
- IC50 (-80 mV, 2 µM Ca2+): 14.7 µM
- IC50 (-100 mV, 2 µM Ca2+): 18.1 µM
- IC50 (-120 mV, 2 µM Ca2+): 21.5 µM
- IC50 (-140 mV, 2 µM Ca2+): 25.1 µM
- IC50 (T518A, V 0 mV): 5.67 µM
- IC50 (T518A, V 20 mV): 4.37 µM
- IC50 (T518A, V 40 mV): 3.5 µM
- IC50 (T518A, V 60 mV): 2.99 µM
- IC50 (T518A, V 80 mV): 2.66 µM
- IC50 (T518A, V 100 mV): 2.55 µM
- IC50 (T518A, V 120 mV): 2.69 µM
- IC50 (T518A, V 140 mV): 3.08 µM
- IC50 (T518A, V -20 mV): 7.32 µM
- IC50 (T518A, V -40 mV): 9.5 µM
- IC50 (T518A, V -60 mV): 12.2 µM
- IC50 (T518A, V -80 mV): 14.7 µM
- IC50 (T518A, V -100 mV): 18.1 µM
- IC50 (T518A, V -120 mV): 21.5 µM
- IC50 (T518A, V -140 mV): 25.1 µM
